Source: ChEMBL document CHEMBL1158316, “Modulation of lipoxygenase activity by bacterial hopanoids” (J Nat Prod, 1997)
The source made the active and inactive calls. No cut-off for these calls is given here.

What was measured:
Glycine max [1] = assay: Inhibition of soybean 15-lipoxygenase assessed as rate of disappearance of dissolved oxygen at 25 uM relative to control; parameters: scale not given: the % may be the effect or the level left
[2] = biological target: T1, Polyunsaturated fatty acid 5-lipoxygenase (Homo sapiens) (UniProt P09917); assay: Inhibition of human recombinant 5-lipoxygenase assessed as rate of disappearance of dissolved oxygen at 25 uM relative to control; parameters: scale not given: the % may be the effect or the level left
T1 sequence (whole entry): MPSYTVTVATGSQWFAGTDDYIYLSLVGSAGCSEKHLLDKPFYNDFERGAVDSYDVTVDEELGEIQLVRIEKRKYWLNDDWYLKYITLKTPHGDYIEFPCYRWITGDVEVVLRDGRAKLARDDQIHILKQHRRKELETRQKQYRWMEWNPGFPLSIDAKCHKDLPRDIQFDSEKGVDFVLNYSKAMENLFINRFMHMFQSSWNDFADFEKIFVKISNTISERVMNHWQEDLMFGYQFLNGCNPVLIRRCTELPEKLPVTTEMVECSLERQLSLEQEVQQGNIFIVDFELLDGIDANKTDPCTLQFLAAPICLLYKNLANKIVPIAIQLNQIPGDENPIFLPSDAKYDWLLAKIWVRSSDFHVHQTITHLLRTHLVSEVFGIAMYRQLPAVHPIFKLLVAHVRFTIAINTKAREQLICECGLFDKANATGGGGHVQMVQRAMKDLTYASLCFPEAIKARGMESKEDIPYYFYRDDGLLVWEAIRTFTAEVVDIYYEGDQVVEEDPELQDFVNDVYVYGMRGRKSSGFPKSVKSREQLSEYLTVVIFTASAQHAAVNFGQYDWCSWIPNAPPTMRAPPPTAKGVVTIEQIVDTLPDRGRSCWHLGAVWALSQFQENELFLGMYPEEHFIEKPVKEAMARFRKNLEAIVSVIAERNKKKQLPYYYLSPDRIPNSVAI

[3] = Inhibition of cyclooxygenase assessed as rate of disappearance of dissolved oxygen at 2.4 uM relative to control; parameters: scale not given: the % may be the effect or the level left
[4] = Inhibition of cyclooxygenase assessed as rate of disappearance of dissolved oxygen at 50 uM relative to control; parameters: scale not given: the % may be the effect or the level left
[5] = biological target: T1, Polyunsaturated fatty acid 5-lipoxygenase (Homo sapiens); assay: Inhibition of human recombinant 5-lipoxygenase assessed as rate of disappearance of dissolved oxygen at 50 uM relative to control; parameters: scale not given: the % may be the effect or the level left
[6] = (§1) Inhibition of soybean 15-lipoxygenase; parameters: species or system Glycine max
Glycine max [7] = assay: Inhibition of soybean 15-lipoxygenase assessed as rate of disappearance of dissolved oxygen at 50 uM relative to control; parameters: scale not given: the % may be the effect or the level left
Glycine max [8] = assay: Inhibition of soybean 15-lipoxygenase assessed as rate of disappearance of dissolved oxygen at 12.5 uM relative to control; parameters: scale not given: the % may be the effect or the level left
[9] = Inhibition of cyclooxygenase assessed as rate of disappearance of dissolved oxygen at 25 uM relative to control; parameters: scale not given: the % may be the effect or the level left
Glycine max [10] = assay: Inhibition of soybean 15-lipoxygenase assessed as rate of disappearance of dissolved oxygen at 6.75 uM relative to control; parameters: scale not given: the % may be the effect or the level left
Glycine max [11] = assay: Inhibition of soybean 15-lipoxygenase assessed as rate of disappearance of dissolved oxygen at 100 uM relative to control; parameters: scale not given: the % may be the effect or the level left
Glycine max [12] = assay: as §1

Structure (SMILES)	Activity (Glycine max [1])	Activity [2]	Activity (Glycine max [7])	also measured
O=C1CCN(c2ccccc2)N1	34%	55%	–	–
COc1ccc2c(c1)c(CC(=O)O)c(C)n2C(=O)c1ccc(Cl)cc1	–	–	–	Activity [3]: 7%
C[C@H](CC[C@@H](O)[C@@H](O)[C@@H](O)CO)[C@H]1CC[C@]2(C)[C@H]3CC[C@@H]4[C@@]5(C)CCCC(C)(C)[C@@H]5CC[C@@]4(C)[C@]3(C)CC[C@@H]12 [TETRAHYDROXYBACTERIOHOPANE]	15%	98%	4%	Activity [4]: 103%; Activity [5]: 97%; IC50 [6]: 10 µM; Activity (Glycine max [8]): 48%; Activity [9]: 102%; Activity (Glycine max [10]): 68%; Activity (Glycine max [11]): 11%
CC(=O)OC[C@H](OC(C)=O)[C@H](OC(C)=O)[C@@H](CC[C@@H](C)[C@H]1CC[C@]2(C)[C@H]3CC[C@@H]4[C@@]5(C)CCCC(C)(C)[C@@H]5CC[C@@]4(C)[C@]3(C)CC[C@@H]12)OC(C)=O	89%	–	114%	Activity (Glycine max [12]): inactive
C[C@H](CC[C@@H](O)[C@@H](O)[C@@H](O)CO[C@H]1[C@H](N)[C@@H](O)[C@H](O)[C@@]1(O)CO)[C@H]1CC[C@]2(C)[C@H]3CC[C@@H]4[C@@]5(C)CCCC(C)(C)[C@@H]5CC[C@@]4(C)[C@]3(C)CC[C@@H]12	151%	–	250%	–
C[C@H](CC[C@@H](O)[C@@H](O)[C@@H](O)CO[C@@H]1O[C@H](CO)[C@@H](O)[C@H](O)[C@H]1N)[C@H]1CC[C@]2(C)[C@H]3CC[C@@H]4[C@@]5(C)CCCC(C)(C)[C@@H]5CC[C@@]4(C)[C@]3(C)CC[C@@H]12	172%	–	188%	–
